According to patent publication US20210186888A1, “NANOPARTICLE COMPOSITIONS FOR CANCER TREATMENT” (priority 2017, published 2021):

Assays:
Format in all cases: cell-based
[1] = tested on: BT-549; test: MTT assay
Method: (§1) MTT assay: Cells were grown to log phase in their respective media, washed in PBS, trypsinized, and plated on 96-well plates at a density of 3,000-6,000 cells per well in 200 μL of complete media. Cells were allowed to recover for 18 hours and were then exposed to AgNPs for 48 or 72 hours. For NAC studies, cells were exposed to 4 mM NAC (Sigma Aldrich) diluted in growth media for 6 h prior to AgNP treatment. Media containing NAC was removed and replaced with media containing AgNPs. For induction of EMT, cells were exposed to 10 ng/ml TGF-β1 (R&D Systems) for 6 days at 37° C., prior to AgNP treatment. Media containing AgNPs were replaced with 200 μL of media containing 0.5 mg/mL MTT and incubated for 1 hour at 37° C. Medium was removed, and cells were lysed in 200 μL of DMSO and read using a Molecular Devices Emax Precision Microplate Reader at 560 nm and corrected for background at 650 nm.
ZEB1 Knockdown: BT549 cells were plated in 60mm tissue culture plates and allowed to grow to 80-90% confluence. Each plate was then transfected with a non-coding control shRNA plasmid, or a plasmid containing shRNA targeted against ZEB1. Knockdown constructs used in this study were obtained from Sigma Aldrich (Mission shRNA TRCN0000369267 and TRCN0000369266). Each plate was transfected using 1 μg plasmid in conjunction with Lipofectamine 2000 (Invitrogen) according to the manufacturer's protocol. The following day cells were reseeded and were maintained in medium containing puromycin (2 μg/ml). ZEB1 expression levels were verified using immunoblot prior to experimentation.
TNBC cell lines which can be further classified as the CLBC (MDA-MB-231, BT-549, SUM-159) or basal (BT-20, MDA-MB-468) molecular subtypes were tested, as were luminal A (MCF-7), HER-2+ (SKBR3), and non-cancerous breast (MCF-10A, 184B5, iMEC) cell lines (FIG. 2A). […] As with the 48 h treatment, the CLBC cell lines were the most sensitive to AgNPs following a 72 h treatment.
(§2) IC50 calculations were performed using the prism software. IC50 in Table II are shown in total NP (AgNP) concentration and silver (Ag) content. At least 3 independent experiments were conducted for each cell line.
BT549 claudin-low breast cancer cells were treated with either AgNPs or KRIBB11, an HSF1 inhibitor, independently and in combination. The treated cells were then assessed for cell viability by MTT assay (FIG. 17A).
BT549 claudin-low breast cancer cells were treated with either AgNPs or 17-DMAG, an HSP90 inhibitor, independently and in combination. Treated cells were then assessed for cell viability by MTT assay (FIG. 19A). […] Combination treatment of both AgNPs and […]

[2] = tested on: MDA-MB-231; test: MTT assay
Method: as §1
As with the 48 h treatment, the CLBC cell lines were the most sensitive to AgNPs following a 72 h treatment.
as §2

[3] = tested on: AgNP sensitive cell lines; test: ROS detection with H2DCF-DA; details: 24 h 10 mM NAC
[4] = tested on: PERK arm of the UPR in MDA-MB-231 cells; test: Immunoblotting of PERK arm activation (p-eIF2α); details: 4 h
Method: MDA-MB-231 cells were treated with 1 μM of the ER stress inducer, thapsigargin, 25 nM of the PERK inhibitor (PERKi), […], or the combination of thapsigargin and GSK2606414 for 4 h to verify the efficacy of the PERKi, GSK2606414. […] To further evaluate the role of ER stress in AgNP-induced cytotoxicity, MDA-MB-231 cells were treated with increasing doses of AgNPs alone or in combination with the PERKi, GSK2606414, for 48 h to determine if PERK inhibition provides protection against AgNP-induced cytotoxicity.

[5] = tested on: BT-20; test: MTT assay
Method: as §1
TNBC cell lines which can be further classified as the CLBC (MDA-MB-231, BT-549, SUM-159) or basal (BT-20, MDA-MB-468) molecular subtypes were tested, as were luminal A (MCF-7), HER-2+ (SKBR3), and non-cancerous breast (MCF-10A, 184B5, iMEC) cell lines (FIG. 2A). […]
BT20 basal-like breast cancer cells were treated with either AgNPs or KRIBB11, an HSF1 inhibitor, independently and in combination. Treated cells were then assessed for cell viability by MTT assay (FIG. 18A).

CO[C@H]1/C=C\C=C(/C)C(=O)NC2=CC(=O)C(NCCN(C)C)=C(C[C@@H](C)C[C@H](OC)[C@H](O)[C@@H](C)/C=C(\C)[C@@H]1OC(N)=O)C2=O [17-DMAG]
sensitivity to AgNPs versus HSP90 inhibition (dose reduction index) ([1]; BT549, single agents): equally sensitive

CC(=O)N[C@@H](CS)C(=O)O [NAC, N-acetylcysteine]
effect of NAC pre-treatment on AgNP cytotoxicity ([1]; BT-549, 4 mM NAC 6 h before 48 h AgNP, Ag 62.5-125 μg/ml): significantly decreased cytotoxicity | effect of NAC pre-treatment on AgNP cytotoxicity ([2]; MDA-MB-231, 4 mM NAC 6 h before 48 h AgNP, Ag 15.625-62.5 μg/ml): significantly decreased cytotoxicity | basal ROS after NAC treatment [3]: partially mitigate some of the basal ROS

Cn1cc(-c2ccc3c(c2)CCN3C(=O)Cc2cccc(C(F)(F)F)c2)c2c(N)ncnc21 [GSK2606414]
viability, AgNPs alone vs in combination with the PERKi ([2]; MDA-MB-231, 48 h): no significant difference in viability | p-eIF2α expression, co-treatment with thapsigargin vs thapsigargin alone ([4]; MDA-MB-231, 25 nM PERKi + 1 μM thapsigargin): decreased p-eIF2α expression

CNc1ccc([N+](=O)[O-])c(Nc2ccc3[nH]ncc3c2)n1 [KRIBB11]
combination treatment with AgNPs (combination index) ([5]; BT20, AgNPs + HSF1 inhibitor): synergistic response | sensitivity to AgNPs versus HSF1 inhibition (dose reduction index) ([5]; BT20, single agents): marginally more sensitive to AgNPs | combination treatment with AgNPs (combination index) ([1]; BT549, AgNPs + HSF1 inhibitor): synergistic response | combination treatment with AgNPs (combination index) ([1]; BT549, AgNPs + HSP90 inhibitor): additive response | sensitivity to AgNPs versus HSF1 inhibition (dose reduction index) ([1]; BT549, single agents): equally sensitive

C/C=C(/C)C(=O)O[C@H]1C(C)=C2[C@H]([C@@H]1OC(=O)CCCCCCC)[C@@](C)(OC(C)=O)C[C@H](OC(=O)CCC)[C@@]1(O)[C@H]2OC(=O)[C@@]1(C)O [thapsigargin, Thapsigargin]
phosphorylation of eIF2α (p-eIF2α) ([4]; MDA-MB-231, 1 μM): increase in phosphorylation of the downstream effector, eIF2α
